Measurements taken from PMC6967409 (Frontiers in Chemistry, 2020).
Values joined by “and” are separate entries in the source; they are usually repeats but may differ in a detail not shown here. Equal entries are not always repeated. Where two headings read alike, the source gives them in different places.

Tests used:
[1] = test system: P. falciparum Dd2; parameters: method as in Coertzen et al. (2018); conditions: pLDH, 48 h; ref Coertzen et al. (2018); read-out: Metabolic IC50 Dd2; cited from earlier work
[2] = test system: P. falciparum K1; parameters: method as in Coertzen et al. (2018); conditions: SYBR Green I; ref Coertzen et al. (2018); read-out: Proliferative IC50 K1; cited from earlier work
[3] = test system: P. falciparum NF54; parameters: method as in Coertzen et al. (2018); conditions: pLDH, 48 h; ref Coertzen et al. (2018); read-out: Metabolic IC50 NF54; cited from earlier work
[4] = test system: HepG2 cells; conditions: read-out: Cytotoxicity EC50 HepG2; ref Coertzen et al. (2018); cited from earlier work
[5] = test system: P. falciparum NF54; parameters: method as in Coertzen et al. (2018); conditions: SYBR Green I; ref Coertzen et al. (2018); read-out: Proliferative IC50 NF54; cited from earlier work
[6] = test system: P. falciparum W2; experiment: T0 [3H]-hypoxanthine drug susceptibility assay; type: cell-based; conditions: Plasmodium falciparum
[7] = test system: P. falciparum ARC08-22 (4G); experiment: T0 [3H]-hypoxanthine drug susceptibility assay, artemisinin-resistant clone (C580Y); type: cell-based, Plasmodium falciparum; conditions: preliminary, W2 as comparative sensitive strain
[8] = test system: P. falciparum stage III/IV/V and mature stage V (>95% stage V) gametocytes; experiment: Stage-specificity and kill kinetics against late stage gametocytes, luciferase reporter line; type: cell-based; conditions: Plasmodium falciparum, 72 h treatment
Description: Late stage gametocytes, stage III, IV/V (10% stage III, 50% stage IV, 40% stage V population on day 10 post-induction) or mature stage V (>95% stage V on day 13 post-induction) were used to determine the differential stage specificity and kill kinetics (speed-of-action) of the compounds. Dose responses were determined using the luciferase reporter line, exposed to 10-fold serial drug dilutions for 72 h at 37°C under 90% N2, 5% CO2, and 5% O2 atmospheric conditions. […] Additionally, a drug washout step was included by replacing the drug-containing spent medium with fresh media (without drug) followed by a further 24 h incubation prior to measuring luciferase activity. […] Data are the average from a single independent biological experiment with technical triplicates, error bars indicate ±SD.

[9] = test system: P. falciparum NF54; experiment: Proliferative (SYBR Green I) assay, asexual parasites, 96 h; type: cell-based; conditions: Plasmodium falciparum, ±SEM
Description: (§1) P. falciparum parasites (NF54, K1, and W2) were cultured in vitro in human erythrocytes (A^+ or O^+) under 90% N2, 5% CO2, and 5% O2 atmospheric conditions with supplemented RPMI 1640 media (Sigma Aldrich) containing Albumax II, as previously described (Verlinden et al., [2011]). This study was carried out according the guidelines set out by the Faculty of Health Sciences Ethical Committee, Ethical Clearance no. EC-120821/077. The protocol was approved by the Faculty of Health sciences ethical committee at the University of Pretoria. All subjects gave written informed consent in accordance with the Declaration of Helsinki. Parasite proliferation was monitored microscopically using Giemsa stained smears. Synchronized ring stage parasites (>95%) were obtained using a 5% D-sorbitol (Sigma Aldrich) treatment. […] Gametocyte cultures were kept stationary under 90% N2, 5% CO2, and 5% O2 atmospheric conditions at 37°C and treated with 50 mM N-acetyl-glucosamine (NAG) to eliminate residual invasion of asexual parasites.
(§2) Working solutions of the derivatives were prepared from a 10 mM stock solution in 100% DMSO in supplemented RPMI 1640 media containing Albumax II with a final DMSO concentration of <0.1%, previously determined as being non-toxic to intraerythrocytic asexual parasites and gametocytes. Dose responses were assayed using a two-fold serial drug dilution on in vitro >95% ring stage intraerythrocytic P. falciparum parasites at 37°C under 90% N2, 5% CO2, and 5% O2 atmospheric conditions, detecting both parasite lactate dehydrogenase (pLDH) activity as a metabolic marker following a 48 h drug exposure (1.5–2% parasitemia and 2% hematocrit; Makler et al., [1993]) and SYBR Green I fluorescence as proliferative marker following a 96 h drug exposure (1% parasitemia and 1% hematocrit). […] Data analysis was performed using GraphPad Prism 7.

[10] = test system: P. falciparum W2; experiment: as above; type: cell-based; conditions: Plasmodium falciparum, ±SEM
Description: as §1, §2

[11] = test system: P. falciparum K1; experiment: as above; type: cell-based; conditions: Plasmodium falciparum, ±SEM
Description: as §1, §2

[12] = test system: P. falciparum NF54 early stage gametocytes (>90% stage I–III); experiment: Gametocytocidal luciferase reporter assay, early stage, 48 h; type: cell-based; conditions: Plasmodium falciparum, NF54, 48 h, read-out: Early Stage (EG, Luc 48 h) IC50
Description: as §1
(§3) Gametocytocidal activity was determined using the luciferase reporter line (Reader et al., [2015]) to derive dose responses with two-fold serial drug dilutions for 48 h against early stage gametocytes (day 5 post-induction population, >90% stage I–III) and 10-fold serial drug dilutions for 72 h against late stage gametocytes (day 10 post-induction population, >90% late stage IV–V) (2% gametocytemia, 2% hematocrit), at 37°C under 90% N2, 5% CO2, and 5% O2 atmospheric conditions.

[13] = test system: P. berghei ANKA GFP-Luc-SMcon sporozoites; experiment: P. berghei-luciferase liver stage bioluminescence assay (causal prophylactic mode) in HepG2-CD81 cells; type: cell-based, Plasmodium berghei
How it was run: (§4)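 HepG2-CD81 cells seeded onto compounds in DMSO, infected with P. berghei luciferase-expressing sporozoites; liver-stage growth read as luciferase bioluminescence after BrightGlo luciferin addition. Cytotoxicity measured in parallel on uninfected HepG2 plates via CellTiterGlo ATP luminescence.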

[14] = test system: P. falciparum NF54; experiment: Metabolic (parasite LDH) assay, asexual ring stage parasites, 48 h; type: cell-based; conditions: Plasmodium falciparum, pLDH, CQ-sensitive NF54
Description: as §1, §2

[15] = Cytotoxicity, MTT assay; type: cell-based; conditions: Chinese hamster, CHO cells
Description: (§5) Cytotoxicity (EC50) was determined against Chinese hamster ovarian (CHO) using a 3-(4,5-dimethylthiazol-2-yl)-2,5-diphenyltetrazolium bromide (MTT) assay and hepatocellular carcinoma cells (HepG2) using the Cytoselect LDH cytotoxicity assay kit (Cell Biolabs).

[16] = test system: P. falciparum NF54 late stage gametocytes (>90% stage IV and V); experiment: Gametocytocidal luciferase reporter assay, late stage, 72 h; type: cell-based, Plasmodium falciparum
Description: as §1, §3

[17] = test system: P. falciparum Dd2; experiment: Metabolic (parasite LDH) assay, asexual ring stage parasites, 48 h; type: cell-based; conditions: Plasmodium falciparum, pLDH, Dd2 CQ, pyrimethamine resistant
Description: as §2

[18] = test system: asexual P. falciparum NF54, Dd2, K1, W2; experiment: Asexual P. falciparum, metabolic (pLDH) and proliferative (SYBR Green I) platforms; type: cell-based; conditions: Plasmodium falciparum; read-out: IC50 for drug sensitive NF54 parasites across both assay platforms
Description: Data analysis was performed using GraphPad Prism 7.
The in vitro activities of the new derivatives were determined against drug sensitive NF54 and multi-drug resistant Dd2, K1, and W2 intraerythrocytic asexual P. falciparum malaria parasite strains using both a metabolic (parasite LDH) and a proliferative (SYBR Green I fluorescence) assay readout (Table 1).

[19] = test system: HepG2 cells; experiment: HepG2 cytotoxicity bioluminescence assay (CellTiterGlo, ATP); type: cell-based, human; conditions: two biological replicates listed in one cell; listed as 28 (WHN-14)
How it was run: as §4

[20] = as above; type: cell-based, human; conditions: human, uninfected HepG2-CD81 cells
How it was run: as §4

[21] = Cytotoxicity, Cytoselect LDH cytotoxicity assay kit; type: cell-based; conditions: human, HepG2 cells
Description: as §5

**Q.** Which IC50 [1] does the source give for `CCN(CC)CCCC(C)Nc1ccnc2cc(Cl)ccc12` (centres unmarked) [CQ, chloroquine] here?
**A.** The IC50 was 251 ± 19.9 nM.

**Q.** And the IC50 [2]?
**A.** The IC50 was 154 ± 14 nM.

**Q.** What about the IC50 [3] of the same compound?
**A.** The IC50 was 10 ± 1.6 nM.

**Q.** And the EC50 [4]?
**A.** Its EC50 is 58.4 nM.

**Q.** What about the IC50 [5] of the same compound?
**A.** The IC50 was 10 ± 3 nM.

**Q.** Which results are given for `C[C@H]1[C@H](N2CCN(C(=O)c3ccc(F)cc3)CC2)O[C@@H]2O[C@@]3(C)CC[C@H]4[C@H](C)CC[C@@H]1[C@@]24OO3` [Compound 28]?
**A.** IC50 ([6]; W2, read-out: W2 IC50): 0.1 ± 0.03 nM; IC90 ([6]; W2, read-out: W2 IC90): 0.19 ± 0.02 nM; susceptibility of ARC08-22 (4G) clone (in words) [7]: no indication of reduced susceptibility; IC50 [8]: < 10 nM; IC50 [9]: 2.8 ± 0.2 nM; IC50 [10]: 2.7 ± 0.2 nM; IC50 [11]: 2.1 ± 1.1 nM; IC50 [12]: 19.5 ± 8.5 nM; Emax ([13]; Plasmodium berghei, 48 h, two biological replicates listed in one cell, read-out: P.berghei-Luciferase Liver Stage Bioluminescence Assay: Maximum measured (%)): 101%; IC50 ([13]; Plasmodium berghei, HepG2, 48 h, liver stage, HepG2 host cells, luciferase after 48 h, ±SD, read-out: P. berghei sporozoites IC50): 114 ± 15.6 nM; IC50 ([13]; Plasmodium berghei, two biological replicates listed in one cell, read-out: P.berghei-Luciferase Liver Stage Bioluminescence Assay: IC50): 103 nM; inhibition at 10 µM ([13]; Plasmodium berghei, Conc. 10 μM, read-out: P. berghei sporozoites Maximum inhibition %): 104 ± 4.24%; IC50 ([13]; two biological replicates listed in one cell, listed as 28 (WHN-14), read-out: P.berghei-Luciferase Liver Stage Bioluminescence Assay: IC50): 125 nM; IC50 [14]: 1.06 ± 0.19 nM; EC50 [15]: 190000 nM; IC50 ([16]; Plasmodium falciparum, NF54, 72 h, read-out: Late Stage (LG, Luc 72 h) IC50, >90% stage IV and V gametocytes, ±SEM): 0.4 to 0.7 nM; IC50 ([16]; read-out: Late Stage (LG, Luc 72 h) IC50, >90% stage IV and V gametocytes, ±SEM): 0.6 ± 0.3 nM; IC50 [17]: 1.5 ± 0.6 nM; IC50 [18]: 1 to 2 nM; HepG2 Cytotoxicity Bioluminescence Assay: Maximum measured (%) [19]: 61.7% and 66.5%; IC50 [19]: 6440 nM; IC50 at 72 h ([20]; two biological replicates listed in one cell): 10200 nM; EC50 at 72 h ([20]; uninfected HepG2, ATP bioluminescence): 8320 nM; EC50 [21]: 190 nM
